Consider 22 molecules from US20230265068A1, “TRANSIENT RECEPTOR POTENTIAL CANONICAL 3 INHIBITORS AND METHODS OF USE THEREOF” (University of Tennessee Research Foundation, priority 2020, published 2023).

The experiment has as its target T1, TRPC3 (Homo sapiens, UniProt Q13507).
T1 sequence (Q13507 1-921): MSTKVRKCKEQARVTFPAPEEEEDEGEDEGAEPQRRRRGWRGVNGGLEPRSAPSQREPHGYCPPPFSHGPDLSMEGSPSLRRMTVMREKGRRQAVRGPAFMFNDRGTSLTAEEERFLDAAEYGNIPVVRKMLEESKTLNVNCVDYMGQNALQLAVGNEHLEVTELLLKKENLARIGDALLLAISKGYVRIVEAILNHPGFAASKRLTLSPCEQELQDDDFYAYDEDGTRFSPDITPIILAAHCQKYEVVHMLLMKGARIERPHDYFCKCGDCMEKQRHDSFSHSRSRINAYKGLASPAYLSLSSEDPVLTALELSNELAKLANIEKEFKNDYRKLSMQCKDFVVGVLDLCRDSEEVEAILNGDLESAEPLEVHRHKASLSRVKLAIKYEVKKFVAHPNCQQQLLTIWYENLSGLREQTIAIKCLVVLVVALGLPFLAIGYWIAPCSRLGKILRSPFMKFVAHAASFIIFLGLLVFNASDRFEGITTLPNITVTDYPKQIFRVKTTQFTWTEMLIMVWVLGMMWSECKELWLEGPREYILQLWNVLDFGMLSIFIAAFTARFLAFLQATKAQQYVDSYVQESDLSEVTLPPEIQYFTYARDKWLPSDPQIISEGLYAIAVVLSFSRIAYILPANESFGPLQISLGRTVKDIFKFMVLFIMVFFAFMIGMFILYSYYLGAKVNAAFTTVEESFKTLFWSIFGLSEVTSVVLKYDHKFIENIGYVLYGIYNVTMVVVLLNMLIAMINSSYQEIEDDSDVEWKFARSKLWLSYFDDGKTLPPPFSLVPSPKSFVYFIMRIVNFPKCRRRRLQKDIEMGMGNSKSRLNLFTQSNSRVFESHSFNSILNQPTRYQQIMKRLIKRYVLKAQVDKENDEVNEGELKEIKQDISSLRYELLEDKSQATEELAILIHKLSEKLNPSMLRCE
In words: whole-cell patch clamp of HEK293 cells transfected with hTRPC3, currents activated by GSK1702934A. It is filed as cell-based. Also on record: expressed in transfected cells; host or cells: HEK293 (CRL-1573), transient transfection, pMO vector. The settings on record: for inhibition at 10 µM: 10 μM compound in presence of agonist GSK1702934A, HEK293 whole-cell peak current, read-out: hTRPC3 % Inhibition at 10 μM (mean ± SEM); for IC50: agonist GSK1702934A, HEK293 whole-cell patch clamp, read-out: hTRPC3 IC50 (μM, mean ± SEM). On the procedure: Human embryonic kidney 293 (HEK293; catalog number CRL-1573) cells were cultured in Dulbecco's modified Eagle's medium (Invitrogen) supplemented with 10% fetal bovine serum and 1% penicillin-streptomycin at 37° C. and 5% CO2. Constructs cloned in pMO (a pcDNA3-modified vector) were co-transfected with GFP-pMO, using Lipofectamine 2000 (Invitrogen) according to the manufacturer's instructions. Macroscopic currents in the whole-cell patch clamp configuration were recorded 18-24 h post-transfection. The extracellular solution contained 140 mM NaCl, 6 mM KCl, 2 mM MgCl2, 10 mM HEPES, and 10 mM glucose (pH 7.4). Pipettes were made of borosilicate glass (outer diameter, 1.5 mm; inner diameter, 1.10 mm; Sutter Instruments) and fire-polished with a resistance between 2.8 and 4.0 megaohms when filled with an intracellular solution that contained 140 mM CsCl, 5 mM EGTA, and 10 mM HEPES, pH 7.2. Currents were recorded with a Multiclamp 700B amplifier (Molecular Devices) using a 1-s ramp from −100 to 100 mV. Agonist and antagonists perfused were dissolved in the bath solution prior experiments: TRP channel agonists Allyl isothiocyanate (AITC; TRPA1), capsaicin (TRPV1), and menthol (TRPM8) were obtained from Sigma, GSK1016790A (TRPV4) from Cayman chemicals, and GSK1702934A (TRPC3, TRPC6 and TRPC7) from Tocris Bioscience. Antagonist Pyr3 was obtained from Tocris Bioscience, all other antagonists were synthesized in house. Data were acquired with a sampling rate of 20 kHz, low-pass filtered (10 kHz), and analyzed offline using Clampfit v10.4.2.0 (Molecular Devices).
Electrophysiology results were expressed as means±SD. Data were plotted, and sigmoidal fitting was done using OriginPro (from OriginLab), with the following Boltzmann function:
Using the patch clamp technique in the whole-cell configuration, compounds were screened by challenging hTRPC3 overexpressing HEK293 cells with GSK1702934A to activate TRPC3 and each of the synthesized compounds (10 μM) individually in the presence of the agonist.
To avoid tachyphylaxis and determine the IC50 of compound 22, each point of the dose response curve (FIG. 1B) was done individually on a cell and exchanging coverslips between cells. […] FIGS. 1D-1I show the inhibition of TRPC3-mediated currents by compound 22 and Pyr3 (serving as the reference control). […] Similar results were obtained when OAG was used as the agonist (data not shown).
In general terms: Patch clamp records ionic current or voltage across a cell membrane.

The inhibition is the change of the read-out against control, counted positive when it falls. A word on the IC50: it is the concentration needed to halve the response being measured. For the molecule `CCc1nnc(-c2cnn(-c3ccc(-n4ccc(Cl)c(Cl)c4=O)cc3)c2C(F)(F)F)o1` [Compound 46, 3,4-dichloro-1-(4-(4-(5-ethyl-1,3,4-oxadiazol-2-yl)-5-(trifluoromethyl)-1H-pyrazol-1-yl)phenyl)pyridin-2(1H)-one], the inhibition at 10 µM is 92.9 ± 6.78% and the IC50 came out at 0.29 ± 0.05 µM.

As to `CC(C)NC(=O)c1cnn(-c2ccc(-n3ccc(Cl)c(Cl)c3=O)cc2)c1C(F)(F)F` [Compound 41, 1-(4-(3,4-dichloro-2-oxopyridin-1(2H)-yl)phenyl)-N-isopropyl-5-(trifluoromethyl)-1H-pyrazole-4-carboxamide], the inhibition at 10 µM is 25.8 ± 8.57%.

On to `CCOC(=O)c1cnn(-c2ccc(-n3cc(Cl)c(Cl)c(Cl)c3=O)cc2)c1C(F)(F)F` [Compound 9, Ethyl 1-(4-(3,4,5-trichloro-2-oxopyridin-1(2H)-yl)phenyl)-5-(trifluoromethyl)-1H-pyrazole-4-carboxylate], for which the inhibition at 10 µM is 39.1 ± 2.31%.

For `CCC(=O)Nc1cnn(-c2ccc(-n3ccc(Cl)c(Cl)c3=O)cc2)c1C(F)(F)F` [Compound 58, N-(1-(4-(3,4-dichloro-2-oxopyridin-1(2H)-yl)phenyl)-5-(trifluoromethyl)-1H-pyrazol-4-yl)propionamide], the inhibition at 10 µM is 86 ± 2.8%.

`CCNC(=O)c1cnn(-c2ccc(-n3ccc(Cl)c(Cl)c3=O)cc2)c1Cl` [Compound 51, 5-chloro-1-(4-(3,4-dichloro-2-oxopyridin-1(2H)-yl)phenyl)-N-ethyl-1H-pyrazole-4-carboxamide]: the inhibition at 10 µM was found to be 72.3 ± 2.88%.

Turning to `CCOC(=O)c1cnn(-c2ccc(-n3cc(Cl)c(Cl)cc3=O)cc2)c1C(F)(F)F` [Compound 5, Ethyl 1-(4-(4,5-dichloro-2-oxopyridin-1(2H)-yl)phenyl)-5-(trifluoromethyl)-1H-pyrazole-4-carboxylate], the inhibition at 10 µM came to 39.1 ± 2.31%.

Take `CCNC(=O)c1cnn(-c2ccc(NC(=O)C(Cl)=C(Cl)Cl)cc2)c1C(F)(F)F` [Compound 79, N-ethyl-1-(4-(2,3,3-trichloroacrylamido)phenyl)-5-(trifluoromethyl)-1H-pyrazole-4-carboxamide]: the inhibition at 10 µM is 23.2 ± 1.23%.

In the case of `CCNC(=O)c1ncn(-c2ccc(-n3ccc(Cl)c(Cl)c3=O)cc2)c1C(F)(F)F` [Compound 59, 1-(4-(3,4-dichloro-2-oxopyridin-1(2H)-yl)phenyl)-N-ethyl-5-(trifluoromethyl)-1H-imidazole-4-carboxamide], the inhibition at 10 µM came out at 95.9 ± 3.72% and the IC50 worked out at 0.87 ± 0.17 µM.

Consider `CCNC(=O)c1cnn(-c2ccc(-n3ccc(Cl)cc3=O)cc2)c1C(F)(F)F` [Compound 21, 1-(4-(4-chloro-2-oxopyridin-1(2H)-yl)phenyl)-N-ethyl-5-(trifluoromethyl)-1H-pyrazole-4-carboxamide], for which the inhibition at 10 µM came to 84.52 ± 0.722%.

On to `CCOCc1cnn(-c2ccc(-n3ccc(Cl)c(Cl)c3=O)cc2)c1C(F)(F)F` [Compound 78, 3,4-dichloro-1-(4-(4-(ethoxymethyl)-5-(trifluoromethyl)-1H-pyrazol-1-yl)phenyl)pyridin-2(1H)-one], for which the inhibition at 10 µM stood at 68.3 ± 2.11%.

Consider `CC(=O)c1cnn(-c2ccc(-n3ccc(Cl)cc3=O)cc2)c1C(F)(F)F` [Compound 66, 1-(4-(4-acetyl-5-(trifluoromethyl)-1H-pyrazol-1-yl)phenyl)-4-chloropyridin-2(1H)-one], for which the inhibition at 10 µM was 60.4 ± 5.12%.

On to `CCNC(=O)c1cnn(-c2ccc(-n3ccc(C(F)(F)F)c(Cl)c3=O)cc2)c1C(F)(F)F` [Compound 27, 1-(4-(3-chloro-2-oxo-4-(trifluoromethyl)pyridin-1(2H)-yl)phenyl)-N-ethyl-5-(trifluoromethyl)-1H-pyrazole-4-carboxamide], for which the inhibition at 10 µM worked out at 89.4 ± 6.45%.

With `CCNC(=O)c1nn(-c2ccc(-n3ccc(Cl)c(Cl)c3=O)cc2)nc1C(F)(F)F` [Compound 63, 2-(4-(3,4-dichloro-2-oxopyridin-1(2H)-yl)phenyl)-N-ethyl-5-(trifluoromethyl)-2H-1,2,3-triazole-4-carboxamide], the inhibition at 10 µM is 86.9 ± 3.83%.

With `CC(=O)c1cnn(-c2ccc(-n3cc(Cl)c(C)c(Cl)c3=O)cc2)c1C(F)(F)F` [Compound 72, 1-(4-(4-acetyl-5-(trifluoromethyl)-1H-pyrazol-1-yl)phenyl)-3,5-dichloro-4-methylpyridin-2(1H)-one], the inhibition at 10 µM worked out at 52.1 ± 8.41%.

Regarding `O=C(NC1CC1)c1cnn(-c2ccc(-n3ccc(Cl)c(Cl)c3=O)cc2)c1C(F)(F)F` [Compound 44, N-cyclopropyl-1-(4-(3,4-dichloro-2-oxopyridin-1(2H)-yl)phenyl)-5-(trifluoromethyl)-1H-pyrazole-4-carboxamide], the inhibition at 10 µM is 74.8 ± 5.65%.

In the case of `CCNC(=O)c1cn(-c2ccc(-n3ccc(Cl)c(Cl)c3=O)cc2)nc1C(F)(F)F` [Compound 49, 1-(4-(3,4-dichloro-2-oxopyridin-1(2H)-yl)phenyl)-N-ethyl-3-(trifluoromethyl)-1H-pyrazole-4-carboxamide], the inhibition at 10 µM was 97.23 ± 0.89% and the IC50 stood at 1.1 ± 0.24 µM.

In the case of `O=C(c1cnn(-c2ccc(-n3ccc(Cl)c(Cl)c3=O)cc2)c1C(F)(F)F)N1CCCC1` [Compound 45, 3,4-dichloro-1-(4-(4-(pyrrolidine-1-carbonyl)-5-(trifluoromethyl)-1H-pyrazol-1-yl)phenyl)pyridin-2(1H)-one], the inhibition at 10 µM is 86.7 ± 3.82%.

As to `CCNCc1cnn(-c2ccc(-n3ccc(Cl)c(Cl)c3=O)cc2)c1C(F)(F)F` [Compound 74, 3,4-dichloro-1-(4-(4-((ethylamino)methyl)-5-(trifluoromethyl)-1H-pyrazol-1-yl)phenyl)pyridin-2(1H)-one], the inhibition at 10 µM stood at 97.96 ± 0.83% and the concentration for half-maximal inhibition (IC50) turned out to be 0.09 ± 0.02 µM.

Consider `CCOC(=O)c1cnn(-c2ccc(-n3cc(Cl)ccc3=O)cc2)c1C(F)(F)F` [Compound 3, Ethyl 1-(4-(5-chloro-2-oxopyridin-1(2H)-yl)phenyl)-5-(trifluoromethyl)-1H-pyrazole-4-carboxylate], for which the inhibition at 10 µM came out at 54 ± 7.25%.

Turning to `CCCCNC(=O)c1cnn(-c2ccc(-n3ccc(Cl)c(Cl)c3=O)cc2)c1C(F)(F)F` [Compound 40, N-butyl-1-(4-(3,4-dichloro-2-oxopyridin-1(2H)-yl)phenyl)-5-(trifluoromethyl)-1H-pyrazole-4-carboxamide], the inhibition at 10 µM amounted to 40.2 ± 3.95%.

Take `CCNC(=O)c1cnn(-c2ccc(-n3ccc(Cl)c(Br)c3=O)cc2)c1C(F)(F)F` [Compound 25, 1-(4-(3-bromo-4-chloro-2-oxopyridin-1(2H)-yl)phenyl)-N-ethyl-5-(trifluoromethyl)-1H-pyrazole-4-carboxamide]: the inhibition at 10 µM came to 76 ± 6.65%.

In the case of `CCCC(N)c1cnn(-c2ccc(-n3ccc(Cl)c(Cl)c3=O)cc2)c1C(F)(F)F` (centres unmarked) [Compound 76, 1-(4-(4-(1-aminobutyl)-5-(trifluoromethyl)-1H-pyrazol-1-yl)phenyl)-3,4-dichloropyridin-2(1H)-one], the inhibition at 10 µM was found to be 33 ± 5.58%.
